Test [1] deals with T1, mCD22 (cellular CD22 on mouse B cells) (Mus musculus, UniProt P35329).
T1 sequence (P35329 22-868): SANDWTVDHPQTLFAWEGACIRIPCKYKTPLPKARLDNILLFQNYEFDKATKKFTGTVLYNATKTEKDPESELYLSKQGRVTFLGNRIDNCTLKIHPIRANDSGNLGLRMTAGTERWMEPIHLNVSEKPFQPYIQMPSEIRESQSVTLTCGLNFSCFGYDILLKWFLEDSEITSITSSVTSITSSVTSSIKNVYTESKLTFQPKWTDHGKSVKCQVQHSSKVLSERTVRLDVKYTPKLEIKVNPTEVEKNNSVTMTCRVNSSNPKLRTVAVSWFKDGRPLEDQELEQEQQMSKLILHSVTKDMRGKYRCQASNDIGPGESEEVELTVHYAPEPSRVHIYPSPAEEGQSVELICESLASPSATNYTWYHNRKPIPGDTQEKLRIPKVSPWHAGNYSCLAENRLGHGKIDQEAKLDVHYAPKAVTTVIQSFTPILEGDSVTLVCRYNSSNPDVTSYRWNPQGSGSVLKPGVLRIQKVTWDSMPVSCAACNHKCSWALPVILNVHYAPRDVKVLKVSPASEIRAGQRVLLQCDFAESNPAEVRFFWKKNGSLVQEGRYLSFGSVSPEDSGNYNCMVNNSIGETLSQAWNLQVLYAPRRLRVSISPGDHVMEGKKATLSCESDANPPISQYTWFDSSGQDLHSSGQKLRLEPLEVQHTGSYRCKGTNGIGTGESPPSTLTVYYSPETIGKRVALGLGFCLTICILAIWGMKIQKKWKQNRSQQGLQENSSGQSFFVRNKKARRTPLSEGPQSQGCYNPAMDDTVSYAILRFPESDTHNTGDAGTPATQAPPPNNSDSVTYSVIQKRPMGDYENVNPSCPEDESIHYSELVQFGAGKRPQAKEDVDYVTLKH
Kind of test: flow cytometry, inhibition of NeuGc2,6-PAA-bio probe staining. It counts as cell-based. The conditions noted are these: sialidase-treated mouse B cells (B220+); preincubation on ice 10 min. On the technique in general: Flow cytometry measures light scatter and fluorescence of single cells or particles in a stream.

The target in test [2] is T2, hCD22d1–3-Fc (Homo sapiens, UniProt P20273).
T2 sequence (P20273 20-330 limits assumed): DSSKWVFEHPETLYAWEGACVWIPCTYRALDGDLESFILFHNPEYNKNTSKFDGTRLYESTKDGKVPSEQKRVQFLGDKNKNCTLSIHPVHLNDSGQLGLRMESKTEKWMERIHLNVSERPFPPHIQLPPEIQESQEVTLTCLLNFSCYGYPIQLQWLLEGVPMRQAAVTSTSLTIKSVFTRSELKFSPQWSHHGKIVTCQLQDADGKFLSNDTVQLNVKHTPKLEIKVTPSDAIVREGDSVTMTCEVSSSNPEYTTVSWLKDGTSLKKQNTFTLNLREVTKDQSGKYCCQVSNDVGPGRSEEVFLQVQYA
Kind of test: hapten inhibition of […]-Fc-chimera binding to fixed target cells.

Test [3] has as its target mSnd1–3-Fc (Mus musculus, UniProt Q62230). Described as above.
Test [4] deals with T3, hCD22 (cellular CD22 on Daudi cells) (Homo sapiens, UniProt P20273).
T3 sequence (P20273 20-847): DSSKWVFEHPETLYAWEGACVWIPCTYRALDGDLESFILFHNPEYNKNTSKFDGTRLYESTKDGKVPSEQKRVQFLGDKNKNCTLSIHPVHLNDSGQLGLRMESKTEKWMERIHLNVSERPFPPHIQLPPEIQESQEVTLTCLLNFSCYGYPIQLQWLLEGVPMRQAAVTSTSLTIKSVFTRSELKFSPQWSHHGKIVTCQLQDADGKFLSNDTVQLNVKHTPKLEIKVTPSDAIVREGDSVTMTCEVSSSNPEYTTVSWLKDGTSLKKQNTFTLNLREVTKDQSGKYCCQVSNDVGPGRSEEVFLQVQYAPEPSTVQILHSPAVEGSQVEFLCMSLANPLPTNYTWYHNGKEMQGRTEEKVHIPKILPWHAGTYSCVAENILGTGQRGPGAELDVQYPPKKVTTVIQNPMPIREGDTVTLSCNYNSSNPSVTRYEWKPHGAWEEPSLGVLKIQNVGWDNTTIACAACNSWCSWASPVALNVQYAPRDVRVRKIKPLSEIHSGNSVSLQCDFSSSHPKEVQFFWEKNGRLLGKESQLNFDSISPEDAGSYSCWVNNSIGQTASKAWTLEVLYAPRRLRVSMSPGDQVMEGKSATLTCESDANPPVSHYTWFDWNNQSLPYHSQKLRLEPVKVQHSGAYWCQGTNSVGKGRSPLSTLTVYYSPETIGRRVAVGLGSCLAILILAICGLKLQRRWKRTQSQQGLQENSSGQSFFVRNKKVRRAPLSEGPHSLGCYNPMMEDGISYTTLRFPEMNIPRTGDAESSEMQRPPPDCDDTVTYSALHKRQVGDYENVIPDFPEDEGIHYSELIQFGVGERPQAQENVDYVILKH
Kind of test: flow cytometry, inhibition of NeuGc2,6-PAA-bio probe staining. It counts as cell-based. Particulars: sialidase-treated Daudi cells; preincubation on ice 10 min.

Test [5] concerns the target T4, mCD22d1–3-Fc (Mus musculus, UniProt P35329).
T4 sequence (P35329 22-347 limits assumed): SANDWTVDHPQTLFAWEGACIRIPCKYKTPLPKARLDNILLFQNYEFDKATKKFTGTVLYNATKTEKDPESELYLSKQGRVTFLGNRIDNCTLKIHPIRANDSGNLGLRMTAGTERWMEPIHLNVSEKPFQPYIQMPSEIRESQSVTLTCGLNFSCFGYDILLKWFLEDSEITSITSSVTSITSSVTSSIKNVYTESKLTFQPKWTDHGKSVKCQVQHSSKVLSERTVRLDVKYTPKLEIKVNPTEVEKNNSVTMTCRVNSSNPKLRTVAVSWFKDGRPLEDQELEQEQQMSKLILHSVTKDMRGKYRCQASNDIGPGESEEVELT
Nature of the test: hapten inhibition of […]-Fc-chimera binding to fixed target cells.

Results on two compounds are retold here after paper PMC2193707 (The Journal of Experimental Medicine, 2002).

Each structure is given as a SMILES string.

Sequence of mSnd1–3-Fc (Q62230 20-325 limits assumed): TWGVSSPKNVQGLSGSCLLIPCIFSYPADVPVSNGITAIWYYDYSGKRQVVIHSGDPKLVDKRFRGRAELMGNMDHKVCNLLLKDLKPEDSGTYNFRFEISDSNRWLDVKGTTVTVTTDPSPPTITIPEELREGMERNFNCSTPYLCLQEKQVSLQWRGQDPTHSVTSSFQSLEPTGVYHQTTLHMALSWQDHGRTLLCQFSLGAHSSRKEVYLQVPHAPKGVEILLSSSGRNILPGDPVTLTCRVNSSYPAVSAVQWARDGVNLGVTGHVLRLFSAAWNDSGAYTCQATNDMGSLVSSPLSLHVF

Consider `CO[C@]1(C(=O)O)C[C@H](O)[C@@H](NC(C)=O)[C@H]([C@H](O)[C@H](O)CNC(=O)Cc2ccc(-c3ccccc3)cc2)O1` [BPAc-Neu5Ac, Methyl-a-9-N-(biphenyl-4-acetyl)-amino-9-deoxy-Neu5Ac], for which the “flow cytometry, inhibition of NeuGc2,6-PAA-bio probe staining” value in test [1] is given as “performed on mouse B cells, BPAc-Neu5Ac was the more potent inhibitor”.
A word on the IC50: it is the midpoint of a concentration-inhibition curve. Low values mean higher potency, high ones lower potency. On to `CO[C@]1(C(=O)O)C[C@H](O)[C@@H](NC(C)=O)[C@H]([C@H](O)[C@H](O)CNC(=O)c2ccc(-c3ccccc3)cc2)O1` [BPC-Neu5Ac, Methyl-a-9-N-(biphenyl-4-carbonyl)-amino-9-deoxy-Neu5Ac], for which the IC50 in test [2] came out at 4 µM; in test [3], 52 µM; in test [5] it was 1220 µM. For the same compound, in test [4], the “flow cytometry, inhibition of NeuGc2,6-PAA-bio probe staining” value is on record as “Pretreatment with BPC-Neu5Ac was most potent in inhibiting the binding of the synthetic CD22 ligand”.
